Measurements: paper PMC5285354, “Cationic Net Charge and Counter Ion Type as Antimicrobial Activity Determinant Factors of Short Lipopeptides” (Frontiers in Microbiology, 2017)
Converted amounts (≈) assume the structure as drawn. Where a SMILES comes first, the peptide text is derived from it. The star is where a group is joined. Myristoyl = CCCCCCCCCCCCCC(=O)*

Legend:
Assay type in all cases: cell-based
[1] = tested on: Aspergillus brasiliensis (ATCC 16404); settings: ATCC 16404, 48 h
How it was run: (§1)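 Broth microdilution per CLSI: Mueller-Hinton broth, 10^5 cfu/mL inoculum, 18 h at 37°C for bacteria; Sabouraud dextrose broth, 10^3 cfu/mL, 48 h at 25°C for fungi. MIC (μg/mL) is the lowest lipopeptide concentration inhibiting visible growth; MBC/MFC also determined. Triplicate on three days.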

[2] = tested on: Bacillus subtilis (ATCC 6633); settings: for MIC Bacillus subtillis: ATCC 6633, 18 h; for MBC Bacillus subtillis: ATCC 6633, 24 h
How it was run: as §1

[3] = tested on: Candida albicans (ATCC 10231); settings: ATCC 10231, 48 h
How it was run: (§2)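 CLSI broth microdilution: bacteria in Mueller-Hinton broth at 10^5 cfu/mL inoculum, 18 h at 37°C; fungi in Sabouraud Dextrose broth at 10^3 cfu/mL, 48 h at 25°C. MIC (μg/mL) is the lowest lipopeptide concentration inhibiting visible growth; triplicate on three days.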

[4] = tested on: Candida tropicalis (PCM 2681); settings: PCM 2681, 48 h
How it was run: as §2

[5] = tested on: Enterococcus faecalis (ATCC 29212); settings: for MBC Enterococcus fecalis, lipopeptides without TFA counter ion / MIC Enterococcus fecalis / MIC Enterococcus fecalis, lipopeptides without TFA counter ion: ATCC 29212, 18 h; for MBC Enterococcus fecalis: ATCC 29212, 24 h
How it was run: as §1

[6] = tested on: Escherichia coli (ATCC 25922); settings: for MBC Escherichia coli, lipopeptides without TFA counter ion / MIC Escherichia coli / MIC Escherichia coli, lipopeptides without TFA counter ion: ATCC 25922, 18 h; for MBC Escherichia coli: ATCC 25922, 24 h
How it was run: as §2

[7] = tested on: Klebsiella pneumoniae (ATCC 700603); settings: for MBC Klebsiella pneumoniae, lipopeptides without TFA counter ion / MIC Klebsiella pneumoniae / MIC Klebsiella pneumoniae, lipopeptides without TFA counter ion: ATCC 700603, 18 h; for MBC Klebsiella pneumoniae: ATCC 700603, 24 h
How it was run: as §2

[8] = tested on: Proteus vulgaris (PCM 2668); settings: 18 h
How it was run: as §2

[9] = tested on: Pseudomonas aeruginosa (ATCC 9027); settings: ATCC 9027, 18 h
How it was run: as §2

[10] = tested on: Staphylococcus aureus (ATCC 25923); settings: for MBC Staphylococcus aureus, lipopeptides without TFA counter ion / MIC Staphylococcus aureus / MIC Staphylococcus aureus, lipopeptides without TFA counter ion: ATCC 25923, 18 h; for MBC Staphylococcus aureus: ATCC 25923, 24 h
How it was run: as §2

[11] = tested on: Staphylococcus epidermidis (PCM 2118); settings: for MIC Staphylococcus epidermidis: PCM 2118, 18 h; for MBC Staphylococcus epidermidis: PCM 2118, 24 h
How it was run: as §1

human red blood cells = settings: 1 h
How it was run: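 Washed donor erythrocytes (4% v/v in PBS, EDTA-anticoagulated) incubated with graded lipopeptide concentrations for 1 h at 37 °C; hemoglobin release read at 550 nm in supernatants. Scaled between 0.1% Triton X-100 (100%) and PBS (0%); MHC is the lowest concentration giving 10% hemolysis.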

[12] = tested on: Pseudomonas aeruginosa (ATCC 9027); settings: ATCC 9027, 24 h
[13] = tested on: Proteus vulgaris (PCM 2668); settings: 24 h
[14] = tested on: Candida albicans (ATCC 10231)

Row | SMILES | MFC Aspergillus brasiliensis [1] [µg/mL] | MIC Aspergillus brasiliensis [1] [µg/mL] | MIC Bacillus subtillis [2] [µg/mL] | MBC Bacillus subtillis [2] [µg/mL] | MFC Candida albicans [3] [µg/mL] | MIC Candida albicans [3] [µg/mL] | MIC Candida albicans, lipopeptides without TFA counter ion [3] [µg/mL] | MFC Candida tropicalis [4] [µg/mL] | MIC Candida tropicalis [4] [µg/mL] | MBC Enterococcus fecalis, lipopeptides without TFA counter ion [5] [µg/mL] | MIC Enterococcus fecalis [5] [µg/mL] | MIC Enterococcus fecalis, lipopeptides without TFA counter ion [5] [µg/mL] | MBC Enterococcus fecalis [5] [µg/mL] | MBC Escherichia coli, lipopeptides without TFA counter ion [6] [µg/mL] | MIC Escherichia coli [6] [µg/mL] | MIC Escherichia coli, lipopeptides without TFA counter ion [6] [µg/mL] | MBC Escherichia coli [6] [µg/mL] | MBC Klebsiella pneumoniae, lipopeptides without TFA counter ion [7] [µg/mL] | MIC Klebsiella pneumoniae [7] [µg/mL] | MIC Klebsiella pneumoniae, lipopeptides without TFA counter ion [7] [µg/mL] | also measured
1 | CCCCCCCCCCCCCCCC(=O)N[C@@H](CCCCN)C(N)=O [C16-K-NH2] | >512 | >512 | 8 (≈ 20.9 µM) | 8 (≈ 20.9 µM) | 512 (≈ 1330 µM) | 512 (≈ 1330 µM) | 512 (≈ 1330 µM) | >512 | >512 | 32 (≈ 83.4 µM) | 32 (≈ 83.4 µM) | 32 (≈ 83.4 µM) | 64 (≈ 167 µM) | 512 (≈ 1330 µM) | 512 (≈ 1330 µM) | 512 (≈ 1330 µM) | >512 | 512 (≈ 1330 µM) | 512 (≈ 1330 µM) | 512 (≈ 1330 µM) | MBC Klebsiella pneumoniae [7]: >512 µg/mL; MIC Proteus vulgaris [8]: >512 µg/mL; MIC Pseudomonas aeruginosa [9]: 512 µg/mL (≈ 1330 µM); MBC Staphylococcus aureus, lipopeptides without TFA counter ion [10]: 128 µg/mL (≈ 334 µM); MIC Staphylococcus aureus [10]: 512 µg/mL (≈ 1330 µM); MIC Staphylococcus aureus, lipopeptides without TFA counter ion [10]: 128 µg/mL (≈ 334 µM); MBC Staphylococcus aureus [10]: 512 µg/mL (≈ 1330 µM); MIC Staphylococcus epidermidis [11]: 8 µg/mL (≈ 20.9 µM); MBC Staphylococcus epidermidis [11]: 16 µg/mL (≈ 41.7 µM); Hemolysis HC10 (MHC), concentration of lipopeptide inducing 10% of hemolysis (human red blood cells): 512 µg/mL; MBC Pseudomonas aeruginosa [12]: >512 µg/mL; MBC Proteus vulgaris [13]: >512 µg/mL; MFC Candida albicans, lipopeptides without TFA counter ion [14]: 512 µg/mL (≈ 1330 µM)
2 | CCCCCCCCCCCCCC(=O)N[C@@H](CCCCN)C(=O)N[C@@H](CCCCN)C(=O)N[C@@H](CCCCN)C(=O)N[C@@H](CCCCN)C(N)=O [C14-KKKK-NH2] (Myristoyl-KKKK-NH2) | 64 (≈ 86.5 µM) | 64 (≈ 86.5 µM) | 4 (≈ 5.4 µM) | 4 (≈ 5.4 µM) | 128 (≈ 173 µM) | 128 (≈ 173 µM) | 256 (≈ 346 µM) | 128 (≈ 173 µM) | 128 (≈ 173 µM) | 64 (≈ 86.5 µM) | 64 (≈ 86.5 µM) | 64 (≈ 86.5 µM) | 64 (≈ 86.5 µM) | 256 (≈ 346 µM) | 256 (≈ 346 µM) | 256 (≈ 346 µM) | 256 (≈ 346 µM) | 128 (≈ 173 µM) | 128 (≈ 173 µM) | 128 (≈ 173 µM) | MBC Klebsiella pneumoniae [7]: 256 µg/mL (≈ 346 µM); MIC Proteus vulgaris [8]: >512 µg/mL; MIC Pseudomonas aeruginosa [9]: 256 µg/mL (≈ 346 µM); MBC Staphylococcus aureus, lipopeptides without TFA counter ion [10]: 128 µg/mL (≈ 173 µM); MIC Staphylococcus aureus [10]: 128 µg/mL (≈ 173 µM); MIC Staphylococcus aureus, lipopeptides without TFA counter ion [10]: 128 µg/mL (≈ 173 µM); MBC Staphylococcus aureus [10]: 128 µg/mL (≈ 173 µM); MIC Staphylococcus epidermidis [11]: 16 µg/mL (≈ 21.6 µM); MBC Staphylococcus epidermidis [11]: 16 µg/mL (≈ 21.6 µM); Hemolysis HC10 (MHC), concentration of lipopeptide inducing 10% of hemolysis (human red blood cells): 256 µg/mL; MBC Pseudomonas aeruginosa [12]: 512 µg/mL (≈ 692 µM); MBC Proteus vulgaris [13]: >512 µg/mL; MFC Candida albicans, lipopeptides without TFA counter ion [14]: 256 µg/mL (≈ 346 µM)
3 | CCCCCCCCCCCCCC(=O)N[C@@H](CCCCN)C(=O)NCC(=O)N[C@@H](CCCCN)C(=O)NCC(N)=O [C14-KGKG-NH2] (Myristoyl-KGKG-NH2) | 128 (≈ 214 µM) | 128 (≈ 214 µM) | 16 (≈ 26.8 µM) | 16 (≈ 26.8 µM) | 128 (≈ 214 µM) | 128 (≈ 214 µM) | 256 (≈ 428 µM) | 512 (≈ 856 µM) | 512 (≈ 856 µM) | 64 (≈ 107 µM) | 64 (≈ 107 µM) | 64 (≈ 107 µM) | 64 (≈ 107 µM) | 128 (≈ 214 µM) | 128 (≈ 214 µM) | 128 (≈ 214 µM) | 128 (≈ 214 µM) | 128 (≈ 214 µM) | 128 (≈ 214 µM) | 128 (≈ 214 µM) | MBC Klebsiella pneumoniae [7]: 128 µg/mL (≈ 214 µM); MIC Proteus vulgaris [8]: >512 µg/mL; MIC Pseudomonas aeruginosa [9]: 64 µg/mL (≈ 107 µM); MBC Staphylococcus aureus, lipopeptides without TFA counter ion [10]: 64 µg/mL (≈ 107 µM); MIC Staphylococcus aureus [10]: 64 µg/mL (≈ 107 µM); MIC Staphylococcus aureus, lipopeptides without TFA counter ion [10]: 64 µg/mL (≈ 107 µM); MBC Staphylococcus aureus [10]: 128 µg/mL (≈ 214 µM); MIC Staphylococcus epidermidis [11]: 32 µg/mL (≈ 53.5 µM); MBC Staphylococcus epidermidis [11]: 32 µg/mL (≈ 53.5 µM); Hemolysis HC10 (MHC), concentration of lipopeptide inducing 10% of hemolysis (human red blood cells): 512 µg/mL; MBC Pseudomonas aeruginosa [12]: 128 µg/mL (≈ 214 µM); MBC Proteus vulgaris [13]: >512 µg/mL; MFC Candida albicans, lipopeptides without TFA counter ion [14]: 256 µg/mL (≈ 428 µM)
4 | CCCCCCCCCCCCCCCC(=O)N[C@@H](CCCCN)C(=O)N[C@@H](CCCCN)C(=O)N[C@@H](CCCCN)C(N)=O [C16-KKK-NH2] | 128 (≈ 200 µM) | 128 (≈ 200 µM) | 8 (≈ 12.5 µM) | 8 (≈ 12.5 µM) | 128 (≈ 200 µM) | 128 (≈ 200 µM) | 128 (≈ 200 µM) | 128 (≈ 200 µM) | 128 (≈ 200 µM) | 8 (≈ 12.5 µM) | 16 (≈ 25 µM) | 8 (≈ 12.5 µM) | 16 (≈ 25 µM) | 8 (≈ 12.5 µM) | 8 (≈ 12.5 µM) | 4 (≈ 6.25 µM) | 16 (≈ 25 µM) | 4 (≈ 6.25 µM) | 4 (≈ 6.25 µM) | 4 (≈ 6.25 µM) | MBC Klebsiella pneumoniae [7]: 4 µg/mL (≈ 6.25 µM); MIC Proteus vulgaris [8]: >512 µg/mL; MIC Pseudomonas aeruginosa [9]: 8 µg/mL (≈ 12.5 µM); MBC Staphylococcus aureus, lipopeptides without TFA counter ion [10]: 8 µg/mL (≈ 12.5 µM); MIC Staphylococcus aureus [10]: 8 µg/mL (≈ 12.5 µM); MIC Staphylococcus aureus, lipopeptides without TFA counter ion [10]: 4 µg/mL (≈ 6.25 µM); MBC Staphylococcus aureus [10]: 8 µg/mL (≈ 12.5 µM); MIC Staphylococcus epidermidis [11]: 4 µg/mL (≈ 6.25 µM); MBC Staphylococcus epidermidis [11]: 4 µg/mL (≈ 6.25 µM); MBC Pseudomonas aeruginosa [12]: 8 µg/mL (≈ 12.5 µM); MBC Proteus vulgaris [13]: >512 µg/mL; MFC Candida albicans, lipopeptides without TFA counter ion [14]: 128 µg/mL (≈ 200 µM)
